# In patent US9938258B2 (Karyopharm Therapeutics Inc., priority 2012, dated 2018):
# Like-named read-outs stand apart in the source and are kept apart here.
# Assays:
# [1] = test system: 3T3 cells; test: MTT cell proliferation assay, 3T3; format: cell-based, mouse; settings: Mus musculus
# Summary of the method: (§1)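 Cells were seeded at 5,000-10,000 per well, left to attach overnight, then exposed to eight compound concentrations from 1 nM to 30 μM. After about 4 h with MTT, solubilized formazan was read at 490 nm and percent inhibition versus negative control was calculated.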
# [2] = test system: Z138 cells; test: MTT cell proliferation assay, Z138; format: cell-based; settings: Homo sapiens
# Summary of the method: as §1
# [3] = test system: MS751 cells; test: MTT cell proliferation assay, MS751; format: cell-based, human; settings: Homo sapiens
# Summary of the method: as §1
# [4] = NIH3T3, 3T3 cells, approximately 64-72 hours incubation, read-out: MTT Assay IC50, 3T3
# [5] = Z-138, Z138 cells, approximately 64-72 hours incubation, read-out: MTT Assay IC50, Z138
# [6] = MS751, MS751 cells, approximately 64-72 hours incubation, read-out: MTT Assay IC50, MS751
structure (smiles),measurement,setting,value
"CC(=O)Nc1ccc(/C=C/C(=O)NCC2Cc3cc(-c4ccc(C(C)=O)s4)cc(Cl)c3O2)cn1 (stereo not drawn) [Compound 315, (E)-3-(6-acetamidopyridin-3-yl)-N-((5-(5-acetylthiophen-2-yl)-7-chloro-2,3-dihydrobenzofuran-2-yl)methyl)acrylamide]",IC50,"[1]; NIH3T3, read-out: MTT Assay IC50, 3T3",> 30000 nM
same,IC50,"[2]; Z-138, read-out: MTT Assay IC50, Z138",> 30000 nM
same,IC50,"[3]; MS751, read-out: MTT Assay IC50, MS751",> 30000 nM
"CC(=O)c1ccc(-c2cc(Cl)c3c(c2)CC(CNC(=O)/C=C/c2ccc(N)nc2)O3)o1 (stereo not drawn) [Compound 319, (E)-N-((5-(5-acetylfuran-2-yl)-7-chloro-2,3-dihydrobenzofuran-2-yl)methyl)-3-(6-aminopyridine-3-yl)acrylamide]",IC50,[1]; [4],5000 to 30000 nM
same,IC50,[2]; [5],< 100 nM
same,IC50,[3]; [6],100 to 5000 nM
"CC(C)(O)c1ccc(-c2cc(Cl)c3c(c2)CC(CNC(=O)/C=C/c2cccnn2)O3)s1 (stereo not drawn) [Compound 320, (E)-N-((7-chloro-5-(5-(2-hydroxypropan-2-yl)thiophen-2-yl)-2,3-dihydrobenzofuran-2-yl)methyl)-3-(pyridazin-3-yl)acrylamide]",IC50,[1]; [4],100 to 5000 nM
same,IC50,[2]; [5],100 to 5000 nM
same,IC50,[3]; [6],100 to 5000 nM
"CC(C)(O)c1ccc(-c2cc(Cl)c3c(c2)CC(CNC(=O)/C=C/c2ccc(N)nc2)O3)s1 (stereo not drawn) [Compound 321, (E)-3-(6-aminopyridin-3-yl)-N-((7-chloro-5-(5-(2-hydroxypropan-2-yl)thiophen-2-yl)-2,3-dihydrobenzofuran-2-yl)methyl)acrylamide]",IC50,[1]; [4],5000 to 30000 nM
same,IC50,[2]; [5],< 100 nM
same,IC50,[3]; [6],100 to 5000 nM
CC(=O)c1sc(-c2cc(Cl)c3c(c2)CC(CNC(=O)/C=C/c2ccc(N)nc2)O3)c(C)c1C (stereo not drawn) [Compound 322],IC50,[1]; [4],5000 to 30000 nM
same,IC50,[2]; [5],< 100 nM
same,IC50,[3]; [6],< 100 nM
"Nc1ccc(/C=C/C(=O)NCC2Cc3cc(-c4cnc(C(=O)N5CCOCC5)nc4)cc(Cl)c3O2)cn1 (stereo not drawn) [Compound 323, (E)-3-(6-aminopyridin-3-yl)-N-((7-chloro-5-(2-(morpholine-4-carbonyl)pyrimidin-5-yl)-2,3-dihydrobenzofuran-2-yl)methyl)acrylamide]",IC50,[1]; [4],5000 to 30000 nM
same,IC50,[2]; [5],100 to 5000 nM
same,IC50,[3]; [6],100 to 5000 nM
"CN(C)C(=O)c1ccc(-c2cc(Cl)c3c(c2)CC(CNC(=O)/C=C/c2ccc(N)nc2)O3)o1 (stereo not drawn) [Compound 324, (E)-5-(2-((3-(6-Aminopyridin-3-yl)acrylamido)methyl)-7-chloro-2,3-dihydrobenzofuran-5-yl)-N,N-dimethylfuran-2-carboxamide]",IC50,[1]; [4],5000 to 30000 nM
same,IC50,[2]; [5],< 100 nM
same,IC50,[3]; [6],< 100 nM
"Cc1onc(-c2ccccc2)c1-c1cc(Cl)c2c(c1)CC(CNC(=O)/C=C/c1ccc(N)nc1)O2 (stereo not drawn) [Compound 325, (E)-3-(6-aminopyridin-3-yl)-N-((7-chloro-5-(5-methyl-3-phenylisoxazol-4-yl)-2,3-dihydrobenzofuran-2-yl)methyl)acrylamide]",IC50,[1]; [4],100 to 5000 nM
same,IC50,[2]; [5],< 100 nM
same,IC50,[3]; [6],100 to 5000 nM
"Nc1ccc(/C=C/C(=O)NCC2Cc3cc(-c4cnc(C(=O)N5CCOCC5)c(Cl)c4)cc(Cl)c3O2)cn1 (stereo not drawn) [Compound 326, (E)-3-(6-aminopyridin-3-yl)-N-((7-chloro-5-(5-chloro-6-(morpholine-4-carbonyl)pyridin-3-yl)-2,3-dihydrobenzofuran-2-yl)methyl)acrylamide]",IC50,[1]; [4],5000 to 30000 nM
same,IC50,[2]; [5],< 100 nM
same,IC50,[3]; [6],100 to 5000 nM
"Cc1noc(-c2ccccc2)c1-c1cc(Cl)c2c(c1)CC(CNC(=O)/C=C/c1ccc(N)nc1)O2 (stereo not drawn) [Compound 327, (E)-3-(6-aminopyridin-3-yl)-N-((7-chloro-5-(3-methyl-5-phenylisoxazol-4-yl)-2,3-dihydrobenzofuran-2-yl)methyl)acrylamide]",IC50,[1]; [4],100 to 5000 nM
same,IC50,[2]; [5],< 100 nM
same,IC50,[3]; [6],100 to 5000 nM
"Nc1ccc(/C=C/C(=O)NCC2Cc3cc(-c4cc(F)c(C(=O)N5CCOCC5)cc4F)cc(Cl)c3O2)cn1 (stereo not drawn) [Compound 328, (E)-3-(6-Aminopyridin-3-yl)-N-((7-chloro-5-(2,5-difluoro-4-(morpholine-4-carbonyl)phenyl)-2,3-dihydrobenzofuran-2-yl)methyl)acrylamide]",IC50,[1]; [4],100 to 5000 nM
same,IC50,[2]; [5],< 100 nM
same,IC50,[3]; [6],< 100 nM
"Nc1ccc(/C=C/C(=O)NCC2Cc3cc(-c4cnc(C(=O)N5CCOCC5)c(F)c4)cc(Cl)c3O2)cn1 (stereo not drawn) [Compound 329, (E)-3-(6-Aminopyridin-3-yl)-N-((7-chloro-5-(5-fluoro-6-(morpholine-4-carbonyl)pyridin-3-yl)-2,3-dihydrobenzofuran-2-yl)methyl)acrylamide]",IC50,[1]; [4],5000 to 30000 nM
same,IC50,[2]; [5],< 100 nM
same,IC50,[3]; [6],100 to 5000 nM
"Nc1ccc(/C=C/C(=O)NCC2Cc3cc(-c4ncc(C(=O)N5CCOCC5)cn4)cc(Cl)c3O2)cn1 (stereo not drawn) [Compound 330, (E)-3-(6-Aminopyridin-3-yl)-N-((7-chloro-5-(5-(morpholine-4-carbonyl)pyrimidin-2-yl)-2,3-dihydrobenzofuran-2-yl)methyl)acrylamide]",IC50,[1]; [4],5000 to 30000 nM
same,IC50,[2]; [5],< 100 nM
same,IC50,[3]; [6],< 100 nM
"Nc1ccc(/C=C/C(=O)NCC2Cc3cc(-c4ccc(C(=O)N5CCOCC5)nn4)cc(Cl)c3O2)cn1 (stereo not drawn) [Compound 331, (E)-3-(6-Aminopyridin-3-yl)-N-((7-chloro-5-(6-(morpholine-4-carbonyl)pyridazin-3-yl)-2,3-dihydrobenzofuran-2-yl)methyl)acrylamide]",IC50,[1]; [4],5000 to 30000 nM
same,IC50,[2]; [5],< 100 nM
same,IC50,[3]; [6],100 to 5000 nM
"Nc1ccc(/C=C/C(=O)NCC2Cc3cc(-c4cc(F)c(C(=O)N5CCOCC5)c(F)c4)cc(Cl)c3O2)cn1 (stereo not drawn) [Compound 332, (E)-3-(6-Aminopyridin-3-yl)-N-((7-chloro-5-(3,5-difluoro-4-(morpholine-4-carbonyl)phenyl)-2,3-dihydrobenzofuran-2-yl)methyl)acrylamide]",IC50,[1]; [4],100 to 5000 nM
same,IC50,[2]; [5],< 100 nM
same,IC50,[3]; [6],< 100 nM
"Nc1ccc(/C=C/C(=O)NCC2Cc3cc(-c4ccc(C(=O)N5CCOCC5)cn4)cc(Cl)c3O2)cn1 (stereo not drawn) [Compound 333, (E)-3-(6-Aminopyridin-3-yl)-N-((7-chloro-5-(5-(morpholine-4-carbonyl)pyridin-2-yl)-2,3-dihydrobenzofuran-2-yl)methyl)acrylamide]",IC50,[1]; [4],5000 to 30000 nM
same,IC50,[2]; [5],< 100 nM
same,IC50,[3]; [6],< 100 nM
"O=C(/C=C/C1Cc2cc(-c3ccc(C(=O)N4CCOCC4)cc3)cc(Cl)c2O1)NCc1cccnc1 (stereo not drawn) [Compound 334, (E)-3-(7-Chloro-5-(4-(morpholine-4-carbonyl)phenyl)-2,3-dihydrobenzofuran-2-yl)-N-(pyridin-3-ylmethyl)acrylamide]",IC50,[1]; [4],5000 to 30000 nM
same,IC50,[2]; [5],100 to 5000 nM
same,IC50,[3]; [6],100 to 5000 nM
"Nc1ccc(/C=C/C(=O)NCC2Cc3cc(-c4cc(F)c(C(=O)N5CC(F)(F)C5)c(F)c4)cc(Cl)c3O2)cn1 (stereo not drawn) [Compound 335, (E)-3-(6-aminopyridin-3-yl)-N-((7-chloro-5-(4-(3,3-difluoroazetidine-1-carbonyl)-3,5-difluorophenyl)-2,3-dihydrobenzofuran-2-yl)methyl)acrylamide]",IC50,[1]; [4],100 to 5000 nM
same,IC50,[2]; [5],< 100 nM
same,IC50,[3]; [6],< 100 nM
"Nc1ccc(/C=C/C(=O)NCC2Cc3cc(-c4ccc(C(=O)N5CC(F)(F)C5)c(F)c4)cc(Cl)c3O2)cn1 (stereo not drawn) [Compound 336, (E)-3-(6-aminopyridin-3-yl)-N-((7-chloro-5-(4-(3,3-difluoroazetidine-1-carbonyl)-3-fluorophenyl)-2,3-dihydrobenzofuran-2-yl)methyl)acrylamide]",IC50,[1]; [4],100 to 5000 nM
same,IC50,[2]; [5],< 100 nM
same,IC50,[3]; [6],< 100 nM
Nc1ccc(/C=C/C(=O)NCC2Cc3cc(-c4ccc(C(=O)N5CC(F)(F)C5)c(F)c4F)cc(Cl)c3O2)cn1 (stereo not drawn) [Compound 337],IC50,[1]; [4],100 to 5000 nM
same,IC50,[2]; [5],< 100 nM
same,IC50,[3]; [6],< 100 nM
"Nc1ccc(/C=C/C(=O)NCC2Cc3cc(-c4ccc(C(=O)N5CC(F)(F)C5)cn4)cc(Cl)c3O2)cn1 (stereo not drawn) [Compound 338, (E)-3-(6-aminopyridin-3-yl)-N-((7-chloro-5-(5-(3,3-difluoroazetidine-1-carbonyl)pyridin-2-yl)-2,3-dihydrobenzofuran-2-yl)methyl)acrylamide]",IC50,[1]; [4],100 to 5000 nM
same,IC50,[2]; [5],< 100 nM
same,IC50,[3]; [6],< 100 nM
"Nc1ccc(/C=C/C(=O)NCC2Cc3cc(-c4ccc(C(=O)N5CCCCC5)cn4)cc(Cl)c3O2)cn1 (stereo not drawn) [Compound 339, (E)-3-(6-aminopyridin-3-yl)-N-((7-chloro-5-(5-(piperidine-1-carbonyl)pyridin-2-yl)-2,3-dihydrobenzofuran-2-yl)methyl)acrylamide]",IC50,[1]; [4],5000 to 30000 nM
same,IC50,[2]; [5],< 100 nM
same,IC50,[3]; [6],100 to 5000 nM
"Nc1ccc(/C=C/C(=O)NCC2Cc3c(-c4ccc(C(=O)N5CC(F)(F)C5)cc4)ccc(Cl)c3O2)cn1 (stereo not drawn) [Compound 340, (E)-3-(6-aminopyridin-3-yl)-N-((7-chloro-4-(4-(3,3-difluoroazetidine-1-carbonyl)phenyl)-2,3-dihydrobenzofuran-2-yl)methyl)acrylamide]",IC50,[1]; [4],< 100 nM
same,IC50,[2]; [5],100 to 5000 nM
same,IC50,[3]; [6],< 100 nM
"Nc1ccc(/C=C/C(=O)NCC2Cc3c(-c4ccccc4C(=O)N4CC(F)(F)C4)ccc(Cl)c3O2)cn1 (stereo not drawn) [Compound 341, (E)-3-(6-aminopyridin-3-yl)-N-((7-chloro-4-(2-(3,3-difluoroazetidine-1-carbonyl)phenyl)-2,3-dihydrobenzofuran-2-yl)methyl)acrylamide]",IC50,[1]; [4],< 100 nM
same,IC50,[2]; [5],100 to 5000 nM
same,IC50,[3]; [6],< 100 nM
"Nc1ccc(/C=C/C(=O)NCC2Cc3cc(-c4ccc(C(=O)N5CCNCC5)nc4)cc(Cl)c3O2)cn1 (stereo not drawn) [Compound 342, (E)-3-(6-aminopyridin-3-yl)-N-((7-chloro-5-(6-(piperazine-1-carbonyl)pyridin-3-yl)-2,3-dihydrobenzofuran-2-yl)methyl)acrylamide]",IC50,[1]; [4],100 to 5000 nM
same,IC50,[2]; [5],> 30000 nM
same,IC50,[3]; [6],100 to 5000 nM
